# Columns and labels:
# [1] = molecular target: T1, recombinant human ALK5 (TGF-βR1) protein (Homo sapiens, UniProt P36897); assay: Biochemical ALK5 (TGF-βR1) assay to measure pKi (LANCE Ultra ULight kinase assay); details: apparent pKi, converted from pIC50 by Cheng-Prusoff
# T1 construct: purchased Life Technologies PR9075A
# T1 sequence (P36897 34-503): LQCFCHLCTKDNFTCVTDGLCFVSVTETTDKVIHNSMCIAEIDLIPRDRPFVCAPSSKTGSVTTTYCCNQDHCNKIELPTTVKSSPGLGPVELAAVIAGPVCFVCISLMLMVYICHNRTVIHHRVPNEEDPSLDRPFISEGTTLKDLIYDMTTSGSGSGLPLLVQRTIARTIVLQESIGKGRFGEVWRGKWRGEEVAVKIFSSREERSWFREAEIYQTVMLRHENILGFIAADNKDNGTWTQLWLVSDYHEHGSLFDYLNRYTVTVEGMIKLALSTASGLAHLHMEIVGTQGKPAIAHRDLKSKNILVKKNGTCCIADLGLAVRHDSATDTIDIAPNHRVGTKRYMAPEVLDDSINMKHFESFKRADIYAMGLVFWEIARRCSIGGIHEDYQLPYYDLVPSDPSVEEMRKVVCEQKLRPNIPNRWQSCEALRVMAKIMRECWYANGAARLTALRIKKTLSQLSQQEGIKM
# Protocol: The assays were performed in a 384-well plate (24 columns×16 wells/rows). An Echo®550 Liquid Handler (Labcyte) was used to prepare various intermediate concentrations of compounds of the present disclosure in 100% DMSO. From the intermediate concentrations, a range of concentrations (from […] to 25 μM corresponding to volumes up to 105 nL) were prepared and ejected into a final assay plate to be used to create individual dose response curves for each of the subject compounds. To a separate column within the assay plate, 105 nL of DMSO in each well was used to establish a maximum assay signal. Additionally, 105 nL of 100 μM SD-208, a selective TGF-βR1 inhibitor (Catalog #S7624, Selleck Chemicals), was used in another column of wells to establish a minimal assay signal.
# With a multidrop dispenser, 8 μL of enzyme mixture (1.25× final) was added to each well. […] The plate was then sealed with an adhesive seal and allowed to equilibrate for 60 minutes at room temperature.
# Next, 2 μL of 125 μM ATP (5×final, 125 μM ATP prepared in assay buffer with 2 mM DTT) was added to the incubated mixtures, covered with a MicroClime® Environmental Lid (Product No. LLS-0310, Labcyte) and immediately transferred to 37° C. The reactions were allowed to proceed at 37° C. for 60 minutes before terminating with the addition of 10 μL of detection antibody (LANCE® (lanthanide chelate excite) Ultra Europium-anti-phospo-DNA Topoisomerase 2-alpha (Thr1342)) in detection mixture (12 mM EDTA, 4 nM detection antibody prepared in detection buffer (50 mM Tris-HCl, 150 mM NaCl, 0.5% BSA (Fraction V), pH 7.0)) at room temperature. The plate was then read on a Perkin Elmer EnVision Plate Reader using europium specific reader settings with excitation and emission wavelengths set to 320 or 340 nm and 665 nm, respectively.
# For dose-response analyses, percent inhibition versus compound concentrations were plotted, and pIC50 values were determined from a 4-parameter robust fit model with GraphPad Prism V5 Software (GraphPad Software, Inc., La Jolla, CA). This model obtains pIC50 values by fitting the sigmoidal dose-response (variable slope) equation to the data. Results were expressed as pIC50 (negative logarithm of IC50) and subsequently converted to pKi (negative logarithm of dissociate constant, Ki) using the Cheng-Prusoff equation. The higher the value of pKi (lower value of Ki), the greater the inhibition of ALK5 activity.
# [2] = test system: TGF-β-stimulated SMAD3 phosphorylation in BEAS-2B cells; assay: Cellular ALK5 potency assay, inhibition of TGF-β stimulated pSMAD3 formation in BEAS-2B cells; assay type: cell-based; details: Homo sapiens, pSMAD3, TGF-β 10 ng/mL, read-out: BEAS2B pIC50 (converted)
# Protocol: The potency of compounds of the present disclosure for inhibition of TGF-β-stimulated SMAD3 phosphorylation was measured in BEAS-2B cells, a human lung epithelial cell line. TGF-β signals through activin receptor-like kinase 5 (ALK5) immediately prior to SMAD3 phosphorylation.
# BEAS-2B cells were grown using 50% DMEM (Life Technologies) and 50% F-12 (Life Technologies) media, supplemented with 10% Fetal Bovine Serum (ATCC), 25 mM HEPES (Life Technologies), and 1×Pen-Strep (Life Technologies). Cells were cultured in a humidified incubator set at 37° C., 5% CO2, and trypsonized using 0.25% Trypsin with 0.5% polyvinylpyrrolidone (PVP).
# For the assay, BEAS-2B cells were seeded at 7,500 cells/well (25 μL/well) in a 384-well plate and cultured overnight. Before dosing, growth media was aspirated and the wells were rinsed with HBSS Buffer (HBSS with Calcium and Magnesium, Life Technologies) supplemented with 25 mM HEPES (Life Technologies) and 1% Bovine Serum Albumin (Roche). Compounds were serially diluted in DMSO, then further diluted with supplemented HBSS Buffer (50 μL/well) to create a compound plate 3× of the final assay concentration, at 0.3% DMSO. The diluted compounds were then added to the cells (8 μL/well) and incubated at 37° C., 5% CO2 for 1 hour. After the compound incubation, TGF-β (R&D Systems) reconstituted in supplemented HBSS Buffer was added to the cells ([…], final concentration 10 ng/mL) and incubated for a further 30 minutes, after which the cells were immediately lysed with AlphaLISA lysis buffer (PerkinElmer). AlphaLISA Acceptor and Detector beads (PerkinElmer) were added 2 hours apart, then incubated overnight to be read the next day. The potency of the compound was determined through analysis of dose-dependent quantified changes in pSMAD3 signal from baseline (non-compound treated TGF-β stimulated cells). Data are expressed as pIC50 (negative decadic logarithm IC50) values.
Compound,Ki [1] [nM],IC50 [2] [nM]
"CC[C@H](C)OC(=O)C1CN(Cc2ccc(Nc3nccc(Nc4ccnc(-c5cccc(C)n5)n4)n3)cc2)CCN1 (mixture of isomers) [Compound 382, [rac-(1S)-1-methylpropyl] 4-[[4-[[4-[[2-(6-methyl-2-pyridyl)pyrimidin-4-yl]amino]pyrimidin-2-yl]amino]phenyl]methyl] piperazine-2-carboxylate]",0.0398 to 0.316,25.1 to 158
"Cc1cccc(-c2nccc(Nc3ccnc(Nc4ccc(CN5CCCC(C(=O)NC6CCNC6)C5)cc4)n3)n2)n1 (racemic) [Compound 456, 1-[[4-[[4-[[2-(6-methyl-2-pyridyl)pyrimidin-4-yl]amino]pyrimidin-2-yl]amino]phenyl]methyl]-N-[rac-(3R)-pyrrolidin-3-yl]piperidine-3-carboxamide]",0.0398 to 0.316,25.1 to 158
"Cc1cccc(-c2nccc(Nc3ccnc(Nc4ccc(N[C@H]5CCNC5)cc4)n3)n2)n1 [Compound 1, N4-[2-(6-methyl-2-pyridyl)pyrimidin-4-yl]-N2-[4-[[(3S)-pyrrolidin-3-yl]amino]phenyl]pyrimidine-2,4-diamine]",0.0398 to 0.316,25.1 to 158
"Cc1cccc(-c2nccc(Nc3ccnc(Nc4cc(F)c(C(=O)N5CCNCC5)c(Cl)c4)n3)n2)n1 [Compound 2, [2-chloro-6-fluoro-4-[[4-[[2-(6-methyl-2-pyridyl)pyrimidin-4-yl]amino]pyrimidin-2-yl]amino]phenyl]-piperazin-1-yl-methanone]",0.398 to 3.16,25.1 to 158
"CC(=O)N1CC(CNc2ccc(Nc3nccc(Nc4ccnc(-c5cccc(C)n5)n4)n3)cc2)C1 [Compound 3, 1-[3-[[4-[[4-[[2-(6-methyl-2-pyridyl)pyrimidin-4-yl]amino]pyrimidin-2-yl]amino]anilino]methyl]azetidin-1-yl]ethanone]",0.398 to 3.16,25.1 to 158
"Cc1cccc(-c2nccc(Nc3ccnc(Nc4ccc(N5CCC(N6CCN(C)CC6)CC5)cc4)n3)n2)n1 [Compound 4, N2-[4-[4-(4-methylpiperazin-1-yl)-1-piperidyl]phenyl]-N4-[2-(6-methyl-2-pyridyl)pyrimidin-4-yl]pyrimidine-2,4-diamine]",0.0398 to 0.316,25.1 to 158
"Cc1cccc(-c2nccc(Nc3ccnc(Nc4ccc(N)cc4)n3)n2)n1 [Compound 5, N2-(4-aminophenyl)-N4-[2-(6-methyl-2-pyridyl)pyrimidin-4-yl]pyrimidine-2,4-diamine]",0.398 to 3.16,≤ 20
"COc1ccc(Nc2nccc(Nc3ccnc(-c4cccc(C)n4)n3)n2)cc1NC(=O)C1CCNCC1 [Compound 6, N-[2-methoxy-5-[[4-[[2-(6-methyl-2-pyridyl)pyrimidin-4-yl]amino]pyrimidin-2-yl]amino]phenyl]piperidine-4-carboxamide]",0.0398 to 0.316,25.1 to 158
"Cc1cccc(-c2nccc(Nc3ccnc(Nc4ccc(N5CCSCC5)cc4)n3)n2)n1 [Compound 8, N4-[2-(6-methyl-2-pyridyl)pyrimidin-4-yl]-N2-(4-thiomorpholinophenyl) pyrimidine-2,4-diamine]",0.0398 to 0.316,25.1 to 158
"CC[C@@H](C)OC(=O)CC1CNCCN1c1ccc(Nc2nccc(Nc3ccnc(-c4cccc(C)n4)n3)n2)cc1 (stereo partly drawn) [Compound 9, [(1R)-1-methylpropyl] 2-[1-[4-[[4-[[2-(6-methyl-2-pyridyl)pyrimidin-4-yl]amino]pyrimidin-2-yl]amino]phenyl]piperazin-2-yl]acetate]",0.0398 to 0.316,25.1 to 158
"Cc1cccc(-c2nccc(Nc3ccnc(Nc4ccc(NC(=O)C5CCCNC5)cc4)n3)n2)n1 (stereo not drawn) [Compound 10, N-[4-[[4-[[2-(6-methyl-2-pyridyl)pyrimidin-4-yl]amino]pyrimidin-2-yl]amino]phenyl]piperidine-3-carboxamide]",0.0398 to 0.316,≤ 20
"Cc1cccc(-c2nccc(Nc3ccnc(Nc4ccc(N5CCCC(C(=O)OC6CCNC6)C5)cc4)n3)n2)n1 (stereo not drawn) [Compound 11, pyrrolidin-3-yl 1-[4-[[4-[[2-(6-methyl-2-pyridyl)pyrimidin-4-yl]amino]pyrimidin-2-yl]amino]phenyl]piperidine-3-carboxylate]",0.0398 to 0.316,200 to 1260
"CC(=O)N1CCN(S(=O)(=O)c2ccc(Nc3nccc(Nc4ccnc(-c5cccc(C)n5)n4)n3)cc2)CC1 [Compound 12, 1-[4-[4-[[4-[[2-(6-methyl-2-pyridyl)pyrimidin-4-yl]amino]pyrimidin-2-yl]amino]phenyl]sulfonylpiperazin-1-yl]ethanone]",0.0398 to 0.316,25.1 to 158
"CC[C@@H](C)OC(=O)Cc1cc(Nc2nccc(Nc3ccnc(-c4cccc(C)n4)n3)n2)ccc1N1CCNCC1 [Compound 13, (R)-sec-butyl 2-(5-((4-((2-(6-methylpyridin-2-yl)pyrimidin-4-yl)amino)pyrimidin-2-yl)amino)-2-(piperazin-1-yl)phenyl)acetate]",0.0398 to 0.316,25.1 to 158
"Cc1cccc(-c2nccc(Nc3ccnc(Nc4ccc(NC(=O)C5CCNCC5)cc4)n3)n2)n1 [Compound 14, N-(4-((4-((2-(6-methylpyridin-2-yl)pyrimidin-4-yl)amino)pyrimidin-2-yl)amino)phenyl)piperidine-4-carboxamide]",0.0398 to 0.316,≤ 20
"Cc1cccc(-c2nccc(Nc3ccnc(Nc4ccc(N5CC6(CNC6)C5)cc4)n3)n2)n1 [Compound 15, N2-[4-(2,6-diazaspiro[3.3]heptan-2-yl)phenyl]-N4-[2-(6-methyl-2-pyridyl)pyrimidin-4-yl]pyrimidine-2,4-diamine]",0.0398 to 0.316,25.1 to 158
"Cc1ccc(O)cc1-c1nccc(Nc2ccnc(Nc3ccc(N4CCC(N(C)C)CC4)cc3)n2)n1 [Compound 16, 3-[4-[[2-[4-[4-(dimethylamino)-1-piperidyl]anilino]pyrimidin-4-yl]amino]pyrimidin-2-yl]-4-methyl-phenol]",0.398 to 3.16,25.1 to 158
"Cc1cccc(-c2nccc(Nc3ccnc(Nc4ccc(CN5CCC(C(=O)OC6CNC6)CC5)cc4)n3)n2)n1 [Compound 17, azetidin-3-yl 1-[[4-[[4-[[2-(6-methyl-2-pyridyl)pyrimidin-4-yl]amino]pyrimidin-2-yl]amino]phenyl]methyl] piperidine-4-carboxylate]",0.0398 to 0.316,25.1 to 158
